What was measured:
Format in all cases: functional
[1] = Growth inhibition of human HOP92 cells at 10 uM after 48 hrs by SRB assay relative to control; conditions: HOP-92, 48 h, read-out: GI
NCI-H23 = assay: Growth inhibition of human NCI-H23 cells at 10 uM after 48 hrs by SRB assay relative to control; conditions: NCI-H23, 48 h, read-out: GI
[2] = Growth inhibition of human TK10 cells at 10 uM after 48 hrs by SRB assay relative to control; conditions: TK-10, 48 h, read-out: GI
SK-MEL-5 = assay: Growth inhibition of human SK-MEL-5 cells at 10 uM after 48 hrs by SRB assay relative to control; conditions: SK-MEL-5, 48 h, read-out: GI
[3] = Growth inhibition of human UACC257 cells at 10 uM after 48 hrs by SRB assay relative to control; conditions: UACC-257, 48 h, read-out: GI
[4] = Growth inhibition of human SW620 cells at 10 uM after 48 hrs by SRB assay relative to control; conditions: SW-620, 48 h, read-out: GI
SK-MEL-28 = assay: Growth inhibition of human SK-MEL-28 cells at 10 uM after 48 hrs by SRB assay relative to control; conditions: SK-MEL-28, 48 h, read-out: GI
[5] = Growth inhibition of human COLO205 cells at 10 uM after 48 hrs by SRB assay relative to control; conditions: COLO 205, 48 h, read-out: GI
[6] = Growth inhibition of human PC3 cells at 10 uM after 48 hrs by SRB assay relative to control; conditions: PC-3, 48 h, read-out: GI
MCF7 = assay: Growth inhibition of human MCF7 cells at 10 uM after 48 hrs by SRB assay relative to control; conditions: MCF7, 48 h, read-out: GI
[7] = Growth inhibition of human SNB19 cells at 10 uM after 48 hrs by SRB assay relative to control; conditions: SNB-19, 48 h, read-out: GI
HT-29 = assay: Growth inhibition of human HT-29 cells at 10 uM after 48 hrs by SRB assay relative to control; conditions: HT-29, 48 h, read-out: GI
A498 = assay: Growth inhibition of human A498 cells at 10 uM after 48 hrs by SRB assay relative to control; conditions: A498, 48 h, read-out: GI
[8] = Growth inhibition of human HL-60(TB) cells at 10 uM after 48 hrs by SRB assay relative to control; conditions: HL-60, 48 h, read-out: GI
MDA-MB-468 = assay: Growth inhibition of human MDA-MB-468 cells at 10 uM after 48 hrs by SRB assay relative to control; conditions: MDA-MB-468, 48 h, read-out: GI
NCI-H322M = assay: Growth inhibition of human NCI-H322M cells at 10 uM after 48 hrs by SRB assay relative to control; conditions: read-out: GI
[9] = Growth inhibition of human OVCAR4 cells at 10 uM after 48 hrs by SRB assay relative to control; conditions: OVCAR-4, 48 h, read-out: GI
A549 = assay: Growth inhibition of human A549 cells at 10 uM after 48 hrs by SRB assay relative to control; conditions: A549, 48 h, read-out: GI
CCRF-CEM = assay: Growth inhibition of human CCRF-CEM cells at 10 uM after 48 hrs by SRB assay relative to control; conditions: read-out: GI
[10] = Growth inhibition of human HCT116 cells at 10 uM after 48 hrs by SRB assay relative to control; conditions: HCT-116, 48 h, read-out: GI
NCI-H226 = assay: Growth inhibition of human NCI-H226 cells at 10 uM after 48 hrs by SRB assay relative to control; conditions: NCI-H226, 48 h, read-out: GI
[11] = Growth inhibition of human Caki1 cells at 10 uM after 48 hrs by SRB assay relative to control; conditions: CAKI-1, 48 h, read-out: GI
NCI-H460 = assay: Growth inhibition of human NCI-H460 cells at 10 uM after 48 hrs by SRB assay relative to control; conditions: NCI-H460, 48 h, read-out: GI
[12] = Growth inhibition of human BT549 cells at 10 uM after 48 hrs by SRB assay relative to control; conditions: BT-549, 48 h, read-out: GI
NCI-H522 = assay: Growth inhibition of human NCI-H522 cells at 10 uM after 48 hrs by SRB assay relative to control; conditions: NCI-H522, 48 h, read-out: GI
[13] = Growth inhibition of human OVCAR5 cells at 10 uM after 48 hrs by SRB assay relative to control; conditions: OVCAR-5, 48 h, read-out: GI
MDA-MB-435 = assay: Growth inhibition of human MDA-MB-435 cells at 10 uM after 48 hrs by SRB assay relative to control; conditions: MDA-MB-435, 48 h, read-out: GI
KM12 = assay: Growth inhibition of human KM12 cells at 10 uM after 48 hrs by SRB assay relative to control; conditions: KM12, 48 h, read-out: GI
K562 = assay: Growth inhibition of human K562 cells at 10 uM after 48 hrs by SRB assay relative to control; conditions: K562, 48 h, read-out: GI
SR = assay: Growth inhibition of human SR cells at 10 uM after 48 hrs by SRB assay relative to control; conditions: read-out: GI
[14] = Growth inhibition of human UACC62 cells at 10 uM after 48 hrs by SRB assay relative to control; conditions: UACC-62, 48 h, read-out: GI
[15] = Growth inhibition of human HCT15 cells at 10 uM after 48 hrs by SRB assay relative to control; conditions: HCT-15, 48 h, read-out: GI
786-0 = assay: Growth inhibition of human 786-0 cells at 10 uM after 48 hrs by SRB assay relative to control; conditions: 786-0, 48 h, read-out: GI
[16] = Growth inhibition of human SF539 cells at 10 uM after 48 hrs by SRB assay relative to control; conditions: SF-539, 48 h, read-out: GI
[17] = Growth inhibition of human IGROV1 cells at 10 uM after 48 hrs by SRB assay relative to control; conditions: IGROV-1, 48 h, read-out: GI
MDA-MB-231 = assay: Growth inhibition of human MDA-MB-231 cells at 10 uM after 48 hrs by SRB assay relative to control; conditions: MDA-MB-231, 48 h, read-out: GI
EKVX = assay: Growth inhibition of human EKVX cells at 10 uM after 48 hrs by SRB assay relative to control; conditions: read-out: GI
[18] = Growth inhibition of human SKOV3 cells at 10 uM after 48 hrs by SRB assay relative to control; conditions: SK-OV-3, 48 h, read-out: GI

Row | Structure (SMILES) | inhibition of growth at 10 µM [1] [%] | inhibition of growth at 10 µM (NCI-H23) [%] | inhibition of growth at 10 µM [2] [%] | inhibition of growth at 10 µM (SK-MEL-5) [%] | inhibition of growth at 10 µM [3] [%] | inhibition of growth at 10 µM [4] [%] | inhibition of growth at 10 µM (SK-MEL-28) [%] | inhibition of growth at 10 µM [5] [%] | inhibition of growth at 10 µM [6] [%] | inhibition of growth at 10 µM (MCF7) [%] | inhibition of growth at 10 µM [7] [%] | inhibition of growth at 10 µM (HT-29) [%] | inhibition of growth at 10 µM [8] [%] | inhibition of growth at 10 µM (MDA-MB-468) [%] | inhibition of growth at 10 µM [9] [%] | inhibition of growth at 10 µM (A549) [%] | inhibition of growth at 10 µM (CCRF-CEM) [%] | inhibition of growth at 10 µM [10] [%] | inhibition of growth at 10 µM (NCI-H226) [%] | inhibition of growth at 10 µM [11] [%] | further results
1 | COc1ccc(C(=O)c2ccc3c(c2)Sc2cc(C(=O)c4ccc(OC)c(F)c4)ccc2N3C)cc1F | 1 | 4 | 7 | 4 | 11 | 0 | 0 | 0 | 3 | 7 | 6 | 5 | 0 | 13 | 0 | 15 | 0 | 2 | 0 | 0 | inhibition of growth at 10 µM (A498): 5%; inhibition of growth at 10 µM (NCI-H322M): 0%; inhibition of growth at 10 µM (NCI-H460): 0%; inhibition of growth at 10 µM [12]: 34%; inhibition of growth at 10 µM (NCI-H522): 20%; inhibition of growth at 10 µM [13]: 0%; inhibition of growth at 10 µM (MDA-MB-435): 0%; inhibition of growth at 10 µM (KM12): 0%; inhibition of growth at 10 µM (K562): 6%; inhibition of growth at 10 µM (SR): 4%; inhibition of growth at 10 µM [14]: 0%; inhibition of growth at 10 µM [15]: 0%; inhibition of growth at 10 µM (786-0): 23%; inhibition of growth at 10 µM [16]: 6%; inhibition of growth at 10 µM [17]: 0%
2 | COc1ccc(C(=O)N2c3ccccc3Sc3ccccc32)cc1F | 45 | 86 | 49 | 93 | 50 | 80 | 57 | 100 | 71 | 82 | 45 | 100 | 89 | 100 | 59 | 83 | 88 | 85 | 30 | 48 | inhibition of growth at 10 µM (MDA-MB-231): 69%; inhibition of growth at 10 µM (EKVX): 59%; inhibition of growth at 10 µM (NCI-H460): 96%; inhibition of growth at 10 µM [12]: 83%; inhibition of growth at 10 µM (NCI-H522): 100%; inhibition of growth at 10 µM [13]: 57%; inhibition of growth at 10 µM (KM12): 81%; inhibition of growth at 10 µM (K562): 82%; inhibition of growth at 10 µM (SR): 75%; inhibition of growth at 10 µM [14]: 62%; inhibition of growth at 10 µM [15]: 76%; inhibition of growth at 10 µM [18]: 87%; inhibition of growth at 10 µM (786-0): 64%; inhibition of growth at 10 µM [16]: 91%; inhibition of growth at 10 µM [17]: 70%
3 | O=C(c1ccc2c(c1)Sc1ccccc1N2)c1c[nH]c2ccccc12 | 28 | 68 | 63 | 89 | 43 | 71 | 54 | 100 | 74 | 80 | 41 | 99 | 85 | 100 | 39 | 77 | 81 | 82 | 18 | 66 | inhibition of growth at 10 µM (MDA-MB-231): 54%; inhibition of growth at 10 µM (A498): 92%; inhibition of growth at 10 µM (EKVX): 47%; inhibition of growth at 10 µM (NCI-H460): 90%; inhibition of growth at 10 µM [12]: 69%; inhibition of growth at 10 µM (NCI-H522): 100%; inhibition of growth at 10 µM [13]: 60%; inhibition of growth at 10 µM (KM12): 87%; inhibition of growth at 10 µM (K562): 81%; inhibition of growth at 10 µM (SR): 76%; inhibition of growth at 10 µM [14]: 46%; inhibition of growth at 10 µM [15]: 68%; inhibition of growth at 10 µM [18]: 85%; inhibition of growth at 10 µM (786-0): 50%; inhibition of growth at 10 µM [16]: 100%; inhibition of growth at 10 µM [17]: 71%
